Experimental data as given in the supplement of paper PMC10307832.

What was measured:
Test in all cases: relative viability (nuclei count vs DMSO), 5 days (fraction); higher = more cells survive
IPA-3 = compound: C1=CC=C2C(=C1)C=CC(=C2SSC3=C(C=CC4=CC=CC=C43)O)O [IPA-3]
Outline: (§1)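 Five library-drug doses spaced by √10 were pinned onto vehicle-anchored 1536-well plates of lung cancer cell lines that had been kept overnight at 37 °C. Cells went 5 days without medium change, then were fixed, permeabilised and Hoechst-stained together, imaged at 4× and counted by MetaXpress. Viability is the ratio of treated-well to vehicle-well nuclei, taken as a median over plates. Plates required control CV below 25% and at least one doubling.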

Doramapimod = compound: Cc1ccc(-n2nc(C(C)(C)C)cc2NC(=O)Nc2ccc(OCCN3CCOCC3)c3ccccc23)cc1 [Doramapimod]
Outline: as §1

RAF265 = compound: Cn1c(Nc2ccc(C(F)(F)F)cc2)nc2cc(Oc3ccnc(-c4ncc(C(F)(F)F)[nH]4)c3)ccc21 [RAF265]
Outline: as §1

| Cell Line | relative viability (IPA-3; 0.2 µM) | relative viability (IPA-3; 0.6325 µM) | relative viability (IPA-3; 2 µM) | relative viability (IPA-3; 6.325 µM) | relative viability (IPA-3; 20 µM) | relative viability (Doramapimod; 0.02 µM) | relative viability (Doramapimod; 0.06325 µM) | relative viability (Doramapimod; 0.2 µM) | relative viability (Doramapimod; 0.6325 µM) | relative viability (Doramapimod; 2 µM) | relative viability (RAF265; 0.01 µM) | relative viability (RAF265; 0.03162 µM) | relative viability (RAF265; 0.1 µM) | relative viability (RAF265; 0.3162 µM) | relative viability (RAF265; 1 µM) |
| --- | --- | --- | --- | --- | --- | --- | --- | --- | --- | --- | --- | --- | --- | --- | --- |
| NCI-H1793 | 1.14 | 0.768 | 0.884 | 1.09 | 1.04 | 0.894 | 0.843 | 0.896 | 0.94 | 0.884 | 1.1 | 0.856 | 0.731 | 0.321 | 0.48 |
| NCI-H1915 | 1.1 | 0.997 | 0.989 | 0.96 | 1.01 | 0.986 | 0.994 | 1.04 | 0.99 | 0.885 | 0.987 | 0.915 | 0.757 | 0.489 | 0.3 |
| NCI-H1944 | 1.05 | 0.897 | 0.953 | 1.11 | 0.955 | 0.891 | 0.994 | 0.935 | 1.19 | 0.878 | 1.06 | 1.13 | 0.972 | 0.755 | 0.667 |
| NCI-H1975 | 1.06 | 0.924 | 0.957 | 1.1 | 0.993 | 1.03 | 1.04 | 1.08 | 1.05 | 1.04 | 0.932 | 0.956 | 0.602 | 0.442 | 0.406 |
| NCI-H1993 | 0.981 | 0.99 | 0.873 | 0.97 | 1.01 | 1.06 | 0.941 | 0.852 | 1.14 | 0.864 | 1.04 | 0.94 | 1 | 0.799 | 0.794 |
| NCI-H2009 | 1.17 | 0.969 | 1.01 | 0.984 | 0.874 | 1.03 | 1.14 | 1.11 | 1.17 | 1.02 | 0.997 | 0.922 | 0.907 | 0.866 | 0.649 |
| NCI-H2023 | 1.37 | 0.899 | 1.02 | 1.1 | 1.06 | 0.928 | 0.975 | 0.998 | 1.19 | 0.906 | 0.988 | 0.988 | 1.13 | 0.762 | 0.808 |
| NCI-H2085 | 1.07 | 0.957 | 1.01 | 0.933 | 1.18 | 1.04 | 0.975 | 1.01 | 1.01 | 0.966 | 1.04 | 0.904 | 1.05 | 0.915 | 0.97 |
| NCI-H2087 | 1.33 | 0.87 | 0.89 | 0.935 | 1.13 | 1.05 | 0.975 | 1.14 | 1.01 | 1 | 1.04 | 0.796 | 0.796 | 0.617 | 0.639 |
| NCI-H2126 | 1.07 | 0.974 | 0.976 | 0.995 | 1.11 | 1.02 | 1.02 | 0.973 | 1.03 | 0.967 | 1.04 | 0.949 | 0.951 | 0.855 | 0.72 |
| NCI-H2170 | 1.08 | 1.01 | 0.999 | 0.878 | 0.988 | 0.923 | 0.98 | 0.996 | 0.972 | 0.943 | 0.957 | 0.896 | 0.877 | 0.755 | 0.716 |
| NCI-H2228 | 1.44 | 0.864 | 1.04 | 1.05 | 1.02 | 1.13 | 0.988 | 1.02 | 1.07 | 0.795 | 0.967 | 0.89 | 0.926 | 0.498 | 0.309 |
| NCI-H2342 | 1.07 | 1.08 | 0.975 | 1.11 | 1.14 | 1.05 | 0.918 | 0.998 | 1.09 | 0.933 | 0.937 | 1.06 | 1.04 | 0.895 | 0.85 |
| NCI-H2347 | 1.21 | 0.962 | 1 | 1.01 | 1.1 | 1.05 | 0.973 | 1.01 | 0.964 | 0.959 | 1.16 | 0.975 | 0.984 | 0.822 | 0.528 |
| NCI-H2405 | 1.06 | 0.994 | 1.03 | 1.02 | 1.06 | 1.02 | 1.03 | 0.973 | 1.07 | 0.914 | 1.04 | 0.976 | 1 | 0.871 | 0.597 |
| NCI-H3122 | 1.02 | 0.98 | 0.981 | 1.04 | 0.999 | 0.995 | 1 | 0.995 | 0.989 | 1 | 1.02 | 1.1 | 1.05 | 0.885 | 0.943 |
| PC-3 [JPC-3] | 1.09 | 1.07 | 1.01 | 0.96 | 1 | 1.15 | 1.11 | 1.1 | 1.13 | 0.904 | 1.07 | 1 | 1.12 | 0.488 | 0.743 |
| PC-14 | 1.16 | 0.963 | 0.936 | 0.898 | 1.09 | 1.06 | 0.998 | 0.968 | 1.14 | 0.933 | 1.02 | 0.967 | 1.1 |  | 0.845 |
| RERF-LC-KJ | 1.14 | 0.943 | 0.946 | 0.991 | 1.07 | 1.09 | 1.03 | 1.07 | 1.02 | 0.999 | 1.03 | 0.974 | 0.987 | 0.791 | 0.715 |
| SK-LU-1 | 1.35 | 0.981 | 1.08 | 0.985 | 1.16 | 1.02 | 1.07 | 1.11 | 1.14 | 1.12 | 1.1 | 0.893 | 0.858 | 0.56 | 0.494 |
| SK-MES-1 | 1.08 | 0.97 | 1.07 | 0.923 | 1.02 | 1.01 | 0.934 | 0.95 | 1.05 | 0.926 | 1.03 | 0.805 | 0.634 | 0.441 | 0.283 |
| SW 900 | 1.13 | 0.698 | 0.686 | 0.775 | 0.775 | 0.893 | 1.03 | 0.941 | 0.945 | 0.737 | 1.06 | 0.792 | 0.856 | 0.679 | 0.527 |
| SW 1573 | 1.13 | 0.919 | 1.01 | 0.94 | 0.696 | 0.946 | 0.9 | 0.844 | 0.952 | 0.838 | 1.18 | 0.89 | 0.955 | 0.98 | 0.573 |
